Measured values published in patent US12371454B2, “Cyclic peptide compound having Kras inhibitory action” (priority 2019, dated 2025).
Starred links: 1 amine or outer side, 2 acyl side, 3 side chain; linkers in the order of their positions; H or OH if unused. Positions of bridges follow the written chain, without caps; N, C: chain ends. Non-standard residues stand in square brackets, D forms with d. Residues, ends and D or L forms follow the SMILES beside them. *: point of attachment. hPhe(3-Cl-4-CF3) = N[C@@H](CCc1ccc(C(F)(F)F)c(Cl)c1)C(=O)O; hPhe(3-F,4-CF3) = N[C@@H](CCc1ccc(C(F)(F)F)c(F)c1)C(=O)O; hPhe(4-CF3) = N[C@@H](CCc1ccc(C(F)(F)F)cc1)C(=O)O; NMeAla(4-thiazolyl) = CN[C@@H](Cc1cscn1)C(=O)O; NMePhe(4-Cl) = CN[C@@H](Cc1ccc(Cl)cc1)C(=O)O; NMePhe(4-Me) = CN[C@@H](Cc1ccc(C)cc1)C(=O)O; NMedβ3hAla = C[C@H](CC(=O)[*:2])N(C)[*:1]; NMeAla(cPent) = CN[C@@H](CC1CCCC1)C(=O)O; NMePhe(2-F) = CN[C@@H](Cc1ccccc1F)C(=O)O; X79 = CC(C)CCOC[C@H](CC(=O)[*:2])N[*:1]; NMeGly(cPent) = CN[C@H](C(=O)O)C1CCCC1; NMeCha = CN[C@@H](CC1CCCCC1)C(=O)O; NMeF = CN[C@@H](Cc1ccccc1)C(=O)O; NMeI = CC[C@H](C)[C@H](NC)C(=O)O; N(CH2CH2)2CF2 = FC1(F)CCN(*)CC1; Cha = N[C@@H](CC1CCCCC1)C(=O)O; NMeD = CN[C@@H](CC(=O)O)C(=O)O; NMeL = CN[C@@H](CC(C)C)C(=O)O; NMeV = CN[C@H](C(=O)O)C(C)C; d(β3hA) = C[C@@H](N)CC(=O)O; NMeS = CN[C@@H](CO)C(=O)O; NMeA = CN[C@@H](C)C(=O)O; Piperidide = C1CCN(*)CC1; Pyrrolidide = C1CCN(*)C1; dNMeA = CN[C@H](C)C(=O)O; Ac5c = NC1(C(=O)O)CCCC1; Aze = O=C(O)[C@@H]1CCN1; Sar = CNCC(=O)O; Propyl = CCC*

Molecular target: T1, Kras and SOS1 (biotin-tagged human Kras loaded with GDP, His-tagged human SOS1) (Homo sapiens, UniProt P01116, G12D)
T1 construct: made in house; host or cells: E. coli (stated for Kras only)
Assay: Protein-protein interaction inhibition between Kras and SOS1 (KrasGl2D-SOS PPI) using AlphaScreen
Format: binding
Details: AlphaScreen; biotin-tagged human Kras loaded with GDP, His-tagged human SOS1; read-out: KRAS G12D-SOS PPI IC50
Outline: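 Binding between SOS1 and Kras is detected as bead-proximity luminescence: illuminate Ni-conjugated donors (680 nm), collect 520-620 nm emission from streptavidin-conjugated acceptors; Kras carries biotin and GDP loaded after purification, SOS1 carries a His tag.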

T1 sequence (P01116 1-188 isoform P01116-2 G12D): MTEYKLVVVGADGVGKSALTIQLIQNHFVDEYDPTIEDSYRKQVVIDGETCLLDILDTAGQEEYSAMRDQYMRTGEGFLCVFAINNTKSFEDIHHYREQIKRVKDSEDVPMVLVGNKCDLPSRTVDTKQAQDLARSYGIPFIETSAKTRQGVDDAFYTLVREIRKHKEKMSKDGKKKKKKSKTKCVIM

| SMILES | IC50 |
| --- | --- |
| CC[C@H](C)[C@@H]1NC(=O)[C@H](CC(C)C)N(C)C(=O)C[C@@H](C(=O)N(C)C)N(C)C(=O)[C@H]([C@@H](C)CC)N(C)C(=O)[C@H](C(C)C)NC(=O)[C@H](Cc2cscn2)N(C)C(=O)[C@H](CCc2ccc(C(F)(F)F)c(Cl)c2)NC(=O)CN(C)C(=O)[C@H](Cc2ccc(C)cc2)N(C)C(=O)[C@@H]2CCN2C(=O)[C@H](C)N(C)C1=O [Compound 982] ([NMeL]I[NMeA][Aze][NMePhe(4-Me)][Sar][hPhe(3-Cl-4-CF3)][NMeAla(4-thiazolyl)]V[NMeI][NMeD]-NMe2; lactam N-11) | 0.048 µM |
| CC[C@H](C)[C@@H]1NC(=O)[C@H](CC(C)C)N(C)C(=O)C[C@@H](C(=O)N2CCCCC2)N(C)C(=O)[C@H](C2CCCC2)N(C)C(=O)C2(CCCC2)NC(=O)[C@H](CC(=O)N2CCC(F)(F)CC2)N(C)C(=O)[C@H](CCc2ccc(C(F)(F)F)c(Cl)c2)NC(=O)CN(C)C(=O)[C@H](CC2CCCCC2)N(C)C(=O)[C@@H]2CCN2C(=O)[C@H](C)N(C)C1=O [Compound 984] ([NMeL]I[NMeA][Aze][NMeCha][Sar][hPhe(3-Cl-4-CF3)][NMeD](N(CH2CH2)2CF2)[Ac5c][NMeGly(cPent)][NMeD]-Piperidide; lactam N-11) | 0.025 µM |
| CC(C)C[C@H]1C(=O)N[C@@H](CC2CCCCC2)C(=O)N(C)CC(=O)N(C)CC(=O)N(C)[C@@H](CC2CCCCC2)C(=O)N(C)CC(=O)N[C@@H](CCc2ccc(C(F)(F)F)c(Cl)c2)C(=O)N2CCC[C@H]2C(=O)NC2(CCCC2)C(=O)N(C)[C@@H](C(C)C)C(=O)N(C)[C@H](C(=O)N2CCCCC2)CC(=O)N1C [Compound 986] ([NMeL][Cha][Sar][Sar][NMeCha][Sar][hPhe(3-Cl-4-CF3)]P[Ac5c][NMeV][NMeD]-Piperidide; lactam N-11) | 0.025 µM |
| CCCOC[C@H]1C(=O)N(C)CC(=O)N[C@@H](CCc2ccc(C(F)(F)F)c(F)c2)C(=O)N2CCC[C@H]2C(=O)NC2(CCCC2)C(=O)N(C)[C@@H](C2CCCC2)C(=O)N(C)[C@H](C(=O)N2CCCC2)CC(=O)N(C)[C@@H](CC(C)C)C(=O)N[C@@H]([C@@H](C)CC)C(=O)N(C)[C@@H](C)C(=O)N2CC[C@H]2C(=O)N1C [Compound 987] ([NMeL]I[NMeA][Aze][NMeS](Propyl)[Sar][hPhe(3-F,4-CF3)]P[Ac5c][NMeGly(cPent)][NMeD]-Pyrrolidide; lactam N-11) | 0.00096 µM |
| CC[C@H](C)[C@@H]1NC(=O)[C@H](C)NC(=O)C[C@@H](C(=O)N2CCCC2)NC(=O)[C@H](CC(C)C)N(C)C(=O)[C@H](Cc2ccccc2)N(C)C(=O)[C@H](CC(C)C)NC(=O)[C@H](CCc2ccc(C(F)(F)F)cc2)NC(=O)CN(C)C(=O)[C@H](Cc2ccc(Cl)cc2)N(C)C(=O)CN(C)C(=O)CN(C)C1=O [Compound 989] (AI[Sar][Sar][NMePhe(4-Cl)][Sar][hPhe(4-CF3)]L[NMeF][NMeL]D-Pyrrolidide; lactam N-11) | 0.034 µM |
| CC[C@H](C)[C@@H]1NC(=O)[C@H](C)N(C)C(=O)C[C@@H](C)NC(=O)[C@H](C2CCCC2)N(C)C(=O)C2(CCCC2)NC(=O)[C@@H]2CCCN2C(=O)[C@H](CCc2ccc(C(F)(F)F)c(Cl)c2)NC(=O)[C@@H](C)N(C)C(=O)[C@H](Cc2ccccc2F)N(C)C(=O)[C@@H]2CCN2C(=O)[C@H](C)N(C)C1=O [Compound 990] (cyclo([Ac5c][NMeGly(cPent)][d(β3hA)][NMeA]I[NMeA][Aze][NMePhe(2-F)][dNMeA][hPhe(3-Cl-4-CF3)]P)) | 0.083 µM |
| CC[C@H](C)[C@@H]1NC(=O)[C@H](CC(C)C)N(C)C(=O)C[C@@H](C)N(C)C(=O)[C@H](CC2CCCC2)N(C)C(=O)C2(CCCC2)NC(=O)[C@@H]2CCCN2C(=O)[C@H](CCc2ccc(C(F)(F)F)c(Cl)c2)NC(=O)CN(C)C(=O)[C@H](CC2CCCCC2)N(C)C(=O)CN(C)C(=O)CN(C)C1=O [Compound 991] (cyclo([Ac5c][NMeAla(cPent)][NMedβ3hAla][NMeL]I[Sar][Sar][NMeCha][Sar][hPhe(3-Cl-4-CF3)]P)) | 0.076 µM |
| CC[C@H](C)[C@@H]1NC(=O)[C@H](CC(C)C)N(C)C(=O)C[C@@H](COCCC(C)C)NC(=O)[C@H](C(C)C)N(C)C(=O)C2(CCCC2)NC(=O)[C@@H]2CCCN2C(=O)[C@H](CCc2ccc(C(F)(F)F)c(Cl)c2)NC(=O)CN(C)C(=O)[C@H](CC2CCCCC2)N(C)C(=O)CN(C)C(=O)CN(C)C1=O [Compound 992] (cyclo([Ac5c][NMeV][X79][NMeL]I[Sar][Sar][NMeCha][Sar][hPhe(3-Cl-4-CF3)]P)) | 0.18 µM |
| CC[C@H](C)[C@@H]1NC(=O)[C@H](CC(C)C)N(C)C(=O)C[C@@H](C(=O)N(C)C)N(C)C(=O)[C@H](C2CCCC2)N(C)C(=O)[C@H](C)NC(=O)[C@H](C)N(C)C(=O)[C@H](CCc2ccc(C(F)(F)F)c(Cl)c2)NC(=O)CN(C)C(=O)[C@H](CC2CCCCC2)N(C)C(=O)[C@@H]2CCN2C(=O)[C@H](C)N(C)C1=O [Compound 993] ([NMeL]I[NMeA][Aze][NMeCha][Sar][hPhe(3-Cl-4-CF3)][NMeA]A[NMeGly(cPent)][NMeD]-NMe2; lactam N-11) | 0.016 µM |
